Consider 7 compounds from patent US10040804B2, “Compounds targeting proteins, compositions, methods, and uses thereof” (BioTheryX, Inc., priority 2016, dated 2018).

The subject of one test is MDA-MB-231 cells. Put plainly: MDA-MB-231 cell viability (CellTiter-Glo). It is filed as cell-based. Particulars: Homo sapiens, 72 h, 3 days, DMSO = 100.00; for viability at 1 µM: 1 μM compound concentration; for viability at 10 µM: 10 μM compound concentration. Summed up: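 Cells in DMEM with 10% FBS, seeded at 10,000 per well, exposed to compound (0.1% DMSO control) for 3 days at 37° C, 5% CO2. Viability read by CellTiter-Glo luminescence after 10 min shaking.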
A general note: In ATP-based viability assays light output follows the ATP content of the culture.

The target in the next test is T1, GSPT1 (Homo sapiens, UniProt P15170).
T1 construct: Whole cell extracts were prepared using RIPA buffer according to manufacturer's protocol (Pierce); endogenous in cells
Put plainly: GSPT1 protein levels by Western Blot analysis. The format is cell-based. Particulars: DMSO = 100.00; for remaining activity at 0.1 µM: 100 nM compound concentration; for remaining activity at 1 µM: 1 μM compound concentration. Summed up: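 Molm-13 AML cells in RPMI 1640 with 10% FBS, about 10^6 cells/mL, treated with compound or DMSO for 6-8 h. RIPA whole-cell lysates resolved by SDS-PAGE, blotted and probed for GSPT1 with β-actin reference; IRDye secondary antibodies quantified by LI-COR Odyssey infrared imaging.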

In a further test the test system is TNF-α. Put plainly: TNF-α expression in LPS stimulated PBMCs (Meso Scale). It is filed as cell-based, human. Particulars: Homo sapiens, PBMC, compound concentration 1 μM. Summed up:
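Thawed primary human PBMCs, 200,000 cells/well in RPMI-1640/10% FBS, pretreated with compound 1 h, then stimulated with 100 ng/mL LPS for 18-24 h. Supernatant TNF-α measured by Meso Scale assay; activity expressed as percentage of LPS-induced level, DMSO as negative control.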

The test system of a further test is IL-2. Put plainly: anti-CD3-induced IL-2 secretion in PBMCs. It is filed as cell-based. Particulars: Homo sapiens, PBMC; compound concentration 1 μM; anti-CD3 stimulated PBMCs, 24 h; DMSO = 1.0; read-out: Fold Change IL-2. Summed up: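 PBMCs stimulated on plates coated with 1 ug/mL anti-CD3 (OKT3), with compound or DMSO, 24 h. Supernatant IL-2 measured by Mesoscale; activity expressed as fold difference from DMSO-stimulated control.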

Another test concerns Molm-13 cells. Put plainly: Molm-13 cell viability (CellTiter-Glo). The format is cell-based. Particulars: Homo sapiens, MOLM-13, read-out: % Inhibition (MOLM-13 Cell Viability); for cytotoxicity at 0.3 µM: compound concentration 0.3 μM; for cytotoxicity at 10 µM: compound concentration 10 μM. Summed up: (§1)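 Molm-13 (RPMI-1640, 10% FBS) and H1048 (DMEM:F12, 5% FBS with supplements) plated at 20,000 cells/well, treated with compound or 0.1% DMSO for 3 days at 37° C., 5% CO2. Viability read by CellTiter-Glo luminescence after 10 min.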

For a further test, the system named is IL-1β. Put plainly: IL-1β expression in LPS stimulated PBMCs (Meso Scale). It is filed as cell-based, human. Particulars: Homo sapiens, PBMC, compound concentration 1 μM. Summed up: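 Human PBMCs (200,000 cells/well in RPMI-1640/10% FBS) were pretreated with compound for 1 h, then stimulated with 100 ng/mL LPS for 18-24 h. IL-1β in supernatant was measured by Meso Scale assay. Activity is expressed as percentage of LPS-induced level, with DMSO-treated wells as negative control.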

In the next test the test system is IL-6. Put plainly: IL-6 expression in LPS stimulated PBMCs (Meso Scale). It is filed as cell-based, human. Particulars: Homo sapiens, PBMC; compound concentration 1 μM; LPS-stimulated PBMCs. Summed up: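 Thawed human PBMCs at 200,000 cells/well in RPMI-1640/10% FBS were pretreated with compound or DMSO for 1 h, then stimulated with 100 ng/mL LPS for 18–24 h. Supernatant IL-6 was measured by Meso Scale assay and expressed as % of LPS-induced activity.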

In another test the test system is H1048 cells. Put plainly: H1048 cell viability (CellTiter-Glo). It is filed as cell-based. Particulars: Homo sapiens, NCI-H1048, 72 h, H1048, 3 days, DMSO = 100.00; for viability at 1 µM: 1 μM compound concentration; for viability at 10 µM: 10 μM compound concentration. Summed up: as §1

T1 sequence (P15170 whole entry): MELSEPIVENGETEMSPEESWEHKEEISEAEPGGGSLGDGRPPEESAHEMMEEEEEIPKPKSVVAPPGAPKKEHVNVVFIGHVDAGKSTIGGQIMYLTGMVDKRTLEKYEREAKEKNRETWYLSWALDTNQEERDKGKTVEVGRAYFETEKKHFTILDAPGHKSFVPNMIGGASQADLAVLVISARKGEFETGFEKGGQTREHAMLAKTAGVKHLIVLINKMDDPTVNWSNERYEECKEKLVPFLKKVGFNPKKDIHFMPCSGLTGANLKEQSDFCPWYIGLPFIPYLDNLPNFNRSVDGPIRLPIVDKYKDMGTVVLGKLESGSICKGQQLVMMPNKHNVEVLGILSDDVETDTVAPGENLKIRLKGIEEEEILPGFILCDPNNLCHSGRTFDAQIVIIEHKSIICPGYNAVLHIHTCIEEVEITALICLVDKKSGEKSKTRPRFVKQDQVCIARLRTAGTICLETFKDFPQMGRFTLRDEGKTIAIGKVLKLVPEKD
T1 sequence (Q96SW2 whole entry, further chain): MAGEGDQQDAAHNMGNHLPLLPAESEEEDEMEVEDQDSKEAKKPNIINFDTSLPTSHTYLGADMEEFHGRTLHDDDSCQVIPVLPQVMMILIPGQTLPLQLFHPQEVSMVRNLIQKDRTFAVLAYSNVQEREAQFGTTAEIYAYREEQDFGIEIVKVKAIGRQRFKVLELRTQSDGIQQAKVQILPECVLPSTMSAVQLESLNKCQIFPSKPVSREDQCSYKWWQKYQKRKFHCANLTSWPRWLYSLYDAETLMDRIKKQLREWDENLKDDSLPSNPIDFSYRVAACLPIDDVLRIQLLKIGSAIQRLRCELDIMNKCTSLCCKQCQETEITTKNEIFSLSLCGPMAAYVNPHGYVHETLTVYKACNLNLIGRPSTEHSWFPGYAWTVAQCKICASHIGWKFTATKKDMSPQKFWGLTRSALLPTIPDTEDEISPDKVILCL
T1 sequence (Q16531 whole entry partner): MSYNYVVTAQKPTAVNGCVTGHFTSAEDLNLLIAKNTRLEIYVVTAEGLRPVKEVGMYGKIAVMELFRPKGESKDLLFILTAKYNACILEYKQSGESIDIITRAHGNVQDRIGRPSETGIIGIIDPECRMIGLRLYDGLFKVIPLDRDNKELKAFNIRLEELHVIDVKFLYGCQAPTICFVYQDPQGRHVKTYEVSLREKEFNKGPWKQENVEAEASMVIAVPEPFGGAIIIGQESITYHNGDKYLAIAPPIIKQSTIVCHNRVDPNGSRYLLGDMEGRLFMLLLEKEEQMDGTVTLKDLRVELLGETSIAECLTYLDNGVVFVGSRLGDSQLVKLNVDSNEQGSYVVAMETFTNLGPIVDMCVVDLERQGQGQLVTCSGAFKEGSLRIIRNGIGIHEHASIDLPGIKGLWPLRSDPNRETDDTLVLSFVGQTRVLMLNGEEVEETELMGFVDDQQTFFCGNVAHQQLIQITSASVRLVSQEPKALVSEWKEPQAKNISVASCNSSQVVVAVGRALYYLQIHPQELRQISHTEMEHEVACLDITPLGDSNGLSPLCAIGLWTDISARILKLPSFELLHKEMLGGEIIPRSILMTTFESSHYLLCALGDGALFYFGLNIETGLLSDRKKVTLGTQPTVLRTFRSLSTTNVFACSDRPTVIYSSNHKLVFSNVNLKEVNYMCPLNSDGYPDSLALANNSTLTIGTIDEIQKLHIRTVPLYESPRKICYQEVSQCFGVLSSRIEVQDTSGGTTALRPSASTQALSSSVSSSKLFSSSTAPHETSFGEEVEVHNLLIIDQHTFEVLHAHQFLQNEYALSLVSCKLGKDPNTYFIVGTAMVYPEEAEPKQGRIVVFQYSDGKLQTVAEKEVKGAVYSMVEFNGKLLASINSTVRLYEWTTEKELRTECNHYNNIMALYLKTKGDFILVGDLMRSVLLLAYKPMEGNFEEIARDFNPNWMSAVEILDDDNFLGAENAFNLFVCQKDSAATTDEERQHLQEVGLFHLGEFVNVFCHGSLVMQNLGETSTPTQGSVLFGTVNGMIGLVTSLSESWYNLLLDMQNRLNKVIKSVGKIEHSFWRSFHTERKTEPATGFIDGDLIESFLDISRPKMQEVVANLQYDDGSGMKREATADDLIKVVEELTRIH

For `Cc1ccc(NC(=O)NCc2scc3c2CN([C@H]2CCCC(=O)NC2=O)C3=O)cc1C(F)(F)F` [Compound 38, (S)-1-((5-(2,7-Dioxoazepan-3-yl)-4-oxo-5,6-dihydro-4H-thieno[3,4-c]pyrrol-1-yl)methyl)-3-(4-methyl-3-(trifluoromethyl)phenyl)urea], the viability at 1 µM with MDA-MB-231 cells came to 54.7%; in the test with H1048 cells, 8.35%. The viability at 10 µM with MDA-MB-231 cells turned out to be 27.6%; with H1048 cells it was 7.89%. On GSPT1, this compound displayed a remaining activity at 0.1 µM of 49%. Besides, the remaining activity at 1 µM at GSPT1 came out at 5.52%. The inhibition at 1 µM stood at 87% in the test with TNF-α, 84% in the test on IL-1β and 94% in the test with IL-6. The fold induction at 1 µM in the test with IL-2 was determined as 0.6. Also, in the test with Molm-13 cells, the cytotoxicity at 0.3 µM was determined as 50%.
In the case of `Cc1ccc(CNC(=O)NCc2cc3c(s2)C(=O)N([C@H]2CCCC(=O)NC2=O)C3)cc1Cl` [Compound 39, (S)-1-(3-Chloro-4-methylbenzyl)-3-((5-(2,7-dioxoazepan-3-yl)-6-oxo-5,6-dihydro-4H-thieno[2,3-c]pyrrol-2-yl)methyl)urea], the viability at 1 µM with MDA-MB-231 cells came to 105%; in the test with H1048 cells it was 58.3%. Moreover, the viability at 10 µM in the test with MDA-MB-231 cells turned out to be 101%; in the test on H1048 cells, 19.9%. Besides, the remaining activity at 0.1 µM at GSPT1 was found to be 87.4%. Moreover, the remaining activity at 1 µM on GSPT1 was 96%. The inhibition at 1 µM was 18% with TNF-α, 24% in the test with IL-1β and 0% in the test on IL-6. Further, the fold induction at 1 µM with IL-2 is 1.4. Also, the cytotoxicity at 10 µM in the test with Molm-13 cells was 9%.
Consider `Cc1ccc(NC(=O)NCc2cc3c(s2)C(=O)N(C2CCC(=O)NC2=O)C3)cc1Cl` (centres unmarked) [Compound 40, 1-(3-Chloro-4-methylphenyl)-3-((5-(2,6-dioxopiperidin-3-yl)-6-oxo-5,6-dihydro-4H-thieno[2,3-c]pyrrol-2-yl)methyl)urea], for which the viability at 1 µM worked out at 57.7% with MDA-MB-231 cells and 12.9% in the test on H1048 cells. Moreover, the viability at 10 µM in the test with MDA-MB-231 cells was 50%; with H1048 cells, 13.6%. The compound further yielded a remaining activity at 0.1 µM on GSPT1 of 46%. Moreover, at GSPT1, the remaining activity at 1 µM turned out to be 40%. The inhibition at 1 µM worked out at 34% in the test with TNF-α, 37% in the test with IL-1β and 17% with IL-6. In addition, the fold induction at 1 µM with IL-2 is 0.3. Besides, the cytotoxicity at 0.02 µM in the test with Molm-13 cells (compound concentration 0.02 μM) is 50%.
Turning to `Cc1ccc(NC(=S)NCc2scc3c2CN([C@H]2CCCC(=O)NC2=O)C3=O)cc1Cl` [Compound 41], the viability at 1 µM in the test with MDA-MB-231 cells was 58.2%; in the test on H1048 cells, 9.42%. The viability at 10 µM in the test with MDA-MB-231 cells worked out at 30%; with H1048 cells it was 9.37%. On GSPT1, this compound showed a remaining activity at 0.1 µM of 55.2%. On GSPT1, this compound gave a remaining activity at 1 µM of 6.4%. Besides, the figures for the inhibition at 1 µM in the test on TNF-α, in the test with IL-1β and with IL-6 were 90%, 89% and 95%, respectively. The fold induction at 1 µM with IL-2 was found to be 0.3. In addition, the cytotoxicity at 0.3 µM with Molm-13 cells came to 50%.
As to `Cc1ccc(NC(=O)NCc2scc3c2CN([C@H]2CCCC(=O)NC2=O)C3=O)cc1C(C)C` [Compound 42, (S)-1-((5-(2,7-Dioxoazepan-3-yl)-4-oxo-5,6-dihydro-4H-thieno[3,4-c]pyrrol-1-yl)methyl)-3-(3-isopropyl-4-methylphenyl)urea], the viability at 1 µM stood at 57.6% in the test on MDA-MB-231 cells and 8.7% in the test on H1048 cells. In addition, the viability at 10 µM in the test on MDA-MB-231 cells was 30.5%; in the test with H1048 cells, 8.68%. In addition, the remaining activity at 0.1 µM at GSPT1 is 50.7%. Further, the remaining activity at 1 µM at GSPT1 was determined as 8.44%. For the same compound, the values for the inhibition at 1 µM in the test with TNF-α, with IL-1β and in the test on IL-6 were 90%, 91% and 97%, respectively. Moreover, the fold induction at 1 µM in the test with IL-2 is 0.4. In addition, the cytotoxicity at 0.8 µM in the test on Molm-13 cells (compound concentration 0.8 μM) came to 50%.
`Cc1c(Cl)cc(NC(=O)NCc2scc3c2CN([C@H]2CCCC(=O)NC2=O)C3=O)cc1C(C)C` [Compound 43, (S)-1-(3-Chloro-5-isopropyl-4-methylphenyl)-3-((5-(2,7-dioxoazepan-3-yl)-4-oxo-5,6-dihydro-4H-thieno[3,4-c]pyrrol-1-yl)methyl)urea]: the viability at 1 µM with MDA-MB-231 cells was 55.2%; with H1048 cells it was 7.97%. Further, the viability at 10 µM worked out at 23.7% in the test on MDA-MB-231 cells and 7.63% in the test with H1048 cells. The compound further gave a remaining activity at 0.1 µM on GSPT1 of 56%. Moreover, the remaining activity at 1 µM at GSPT1 stood at 14.2%. The figures for the inhibition at 1 µM in the test with TNF-α, in the test with IL-1β and with IL-6 were 77%, 73% and 88%, respectively. Besides, the fold induction at 1 µM in the test on IL-2 is 0.5. Further, the cytotoxicity at 10 µM in the test on Molm-13 cells is 100%.
`Cc1ccc(CNC(=O)NCc2cc3c(s2)C(=O)N(C2CCC(=O)NC2=O)C3)cc1Cl` (centres unmarked) [Compound 44, 1-(3-Chloro-4-methylbenzyl)-3-((5-(2,6-dioxopiperidin-3-yl)-6-oxo-5,6-dihydro-4H-thieno[2,3-c]pyrrol-2-yl)methyl)urea]: the results for the viability at 1 µM with MDA-MB-231 cells and in the test with H1048 cells were 64.6% and 13.8%, respectively. The figures for the viability at 10 µM in the test with MDA-MB-231 cells and with H1048 cells were 56.5% and 14.3%, respectively. The remaining activity at 0.1 µM on GSPT1 came out at 57.3%. The compound also came in with a remaining activity at 1 µM at GSPT1 of 53.6%. The values for the inhibition at 1 µM in the test on TNF-α, in the test on IL-1β and in the test with IL-6 were 41%, 45% and 6%, respectively. For the same compound, in the test with IL-2, the fold induction at 1 µM is 1. Moreover, the cytotoxicity at 0.1 µM with Molm-13 cells (compound concentration 0.1 μM) was 50%.

The term viability denotes a read-out of living cells in per cent, often relative to untreated cells. A word on the remaining activity: it is the share of the control activity or signal that is left under treatment. By inhibition is commonly meant how much of the control response was suppressed. Low readings indicate a response near the control, high ones a response far below the control.
